Laboratory results published in PubChem BioAssay AID342 (DTP/NCI, 2004).
Several values for one entry are separate records, joined by “and”; a condition that tells them apart may be missing. Identical values can stand only once.

System: Swiss mice, Sarcoma 180 sc, mean tumor weight T/C
Experiment: NCI In Vivo Anticancer Drug Screen. Data for tumor model Sarcoma 180 (subcutaneous) in Swiss mice
Details: endpoint: mean tumor weight, higher = larger tumour
In short: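 T/C ratio: treated over vehicle-treated controls, measuring survival or tumor size in transplanted-tumor mice.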

## O=C(O)c1cc2ccccc2c(Br)c1O.OC1CCC(Br)C2CCC[N-]C12.[Cu+]
dose: 0.5 mg/kg/injection, schedule: Q01DX007 (ip), vehicle: carboxymethylcellulose (CMC)
  T/C: 74 % of control
dose: 1.0 mg/kg/injection, schedule: Q01DX007 (ip), vehicle: carboxymethylcellulose (CMC)
  T/C: 90 % of control and 95 % of control
dose: 2.0 mg/kg/injection, schedule: Q01DX007 (ip), vehicle: carboxymethylcellulose (CMC)
  T/C: 101 % of control and 109 % of control
dose: 4.0 mg/kg/injection, schedule: Q01DX007 (ip), vehicle: carboxymethylcellulose (CMC)
  T/C: 83 % of control

## O=C(O)CCC(=O)CCl
dose: 6.2 mg/kg/injection, schedule: Q01DX007 (ip), vehicle: saline
  T/C: 76 % of control
dose: 9.3 mg/kg/injection, schedule: Q01DX007 (ip), vehicle: saline
  T/C: 57 % of control
dose: 14.0 mg/kg/injection, schedule: Q01DX007 (ip), vehicle: saline
  T/C: 57 % of control
dose: 21.0 mg/kg/injection, schedule: Q01DX007 (ip), vehicle: saline
  T/C: 46 % of control and 55 % of control
dose: 30.0 mg/kg/injection, schedule: Q01DX007 (ip), vehicle: saline
  T/C: 31 % of control

## COC1C(O)CC(=O)OC(C)C/C=C/C=C/C(OC2CCC(N(C)C)C(C)O2)C(C)CC(CC=O)C1OC1OC(C)C(OC2CC(C)(O)C(O)C(C)O2)C(N(C)C)C1O (stereo not drawn)
dose: 44.0 mg/kg/injection, schedule: Q01DX007 (ip), vehicle: water
  T/C: 124 % of control
dose: 66.0 mg/kg/injection, schedule: Q01DX007 (ip), vehicle: water
  T/C: 85 % of control
dose: 100.0 mg/kg/injection, schedule: Q01DX007 (ip), vehicle: water
  T/C: 123 % of control
dose: 150.0 mg/kg/injection, schedule: Q01DX007 (ip), vehicle: water
  T/C: 95 % of control
dose: 225.0 mg/kg/injection, schedule: Q01DX007 (ip), vehicle: water
  T/C: 110 % of control
dose: 337.0 mg/kg/injection, schedule: Q01DX007 (ip), vehicle: water
  T/C: 72 % of control

## CO[C@@]12[C@H](COC(N)=O)C3=C(C(=O)C(C)=C(N)C3=O)N1C[C@@H]1N[C@@H]12
dose: 0.12 mg/kg/injection, schedule: Q#A X014 (ip), vehicle: carboxymethylcellulose (CMC)
  T/C: 113 % of control
dose: 0.25 mg/kg/injection, schedule: Q#A X014 (ip), vehicle: carboxymethylcellulose (CMC)
  T/C: 73 % of control
dose: 0.5 mg/kg/injection, schedule: Q#A X014 (ip), vehicle: carboxymethylcellulose (CMC)
  T/C: 57 % of control
dose: 1.5 mg/kg/injection, schedule: Q#A X014 (ip), vehicle: carboxymethylcellulose (CMC)
  T/C: 39 % of control
dose: 2.0 mg/kg/injection, schedule: Q#A X014 (ip), vehicle: carboxymethylcellulose (CMC)
  T/C: 17 % of control
dose: 262.0 micrograms/kg/injection, schedule: Q01DX007 (ip), vehicle: carboxymethylcellulose (CMC)
  T/C: 69 % of control
dose: 525.0 micrograms/kg/injection, schedule: Q01DX007 (ip), vehicle: carboxymethylcellulose (CMC)
  T/C: 98 % of control
dose: 1050.0 micrograms/kg/injection, schedule: Q01DX007 (ip), vehicle: carboxymethylcellulose (CMC)
  T/C: 84 % of control
dose: 2100.0 micrograms/kg/injection, schedule: Q01DX007 (ip), vehicle: carboxymethylcellulose (CMC)
  T/C: 49 % of control

## CO[C@H](C(=O)[C@@H](O)[C@@H](C)O)[C@@H]1Cc2cc3cc(OC4CC(OC5CC(O)C(O)C(C)O5)C(O)C(C)O4)c(C)c(O)c3c(O)c2C(=O)[C@H]1OC1CC(OC2CC(OC3CC(C)(O)C(O)C(C)O3)C(O)C(C)O2)C(O)C(C)O1 (stereo partly drawn)
dose: 0.25 mg/kg/injection, schedule: Q01DX007 (ip), vehicle: water
  T/C: 72 % of control
dose: 0.3 mg/kg/injection, schedule: Q01DX007 (ip), vehicle: water
  T/C: 50 % of control
dose: 0.3 mg/kg/injection, schedule: Q02DX004 (ip), vehicle: water
  T/C: 74 % of control
dose: 0.45 mg/kg/injection, schedule: Q01DX007 (ip), vehicle: water
  T/C: 45 % of control
dose: 0.45 mg/kg/injection, schedule: Q02DX004 (ip), vehicle: water
  T/C: 80 % of control
dose: 0.5 mg/kg/injection, schedule: Q01DX007 (ip), vehicle: water
  T/C: 57 % of control
dose: 0.6 mg/kg/injection, schedule: Q02DX004 (ip), vehicle: water
  T/C: 47 % of control
dose: 1.0 mg/kg/injection, schedule: Q01DX007 (ip), vehicle: water
  T/C: 102 % of control
dose: 1.0 mg/kg/injection, schedule: Q02DX004 (ip), vehicle: water
  T/C: 80 % of control
dose: 2.0 mg/kg/injection, schedule: Q01DX007 (ip), vehicle: water
  T/C: 72 % of control
dose: 2.0 mg/kg/injection, schedule: Q02DX004 (ip), vehicle: water
  T/C: 67 % of control
dose: 3.0 mg/kg/injection, schedule: Q02DX004 (ip), vehicle: water
  T/C: 50 % of control
dose: 4.0 mg/kg/injection, schedule: Q02DX004 (ip), vehicle: water
  T/C: 60 % of control
dose: 5.0 mg/kg/injection, schedule: Q02DX004 (ip), vehicle: water
  T/C: 50 % of control
